Results reported in US4950647A, “T cell immunopotentiator” (Nucleic Acid Research Institute, priority 1988, dated 1990).
Read-outs that look alike come from different tables or passages of the source.

Key:
[1] = Revankar et al. 1984; cited from earlier work
[2] = test system: lymphocytes (peripheral blood mononuclear cells); assay: Pokeweed mitogen (PWM) induced lymphocyte proliferation; format: cell-based, human; set-up: 3H-thymidine incorporation: unit not given here
Description: Peripheral blood mononuclear cells were isolated from heparinized peripheral blood of normal healthy donors as described in Sharma, B. and S. Gupta, "Antigen-specific primary cytotoxic T lymphocyte response in acquired immune deficiency syndrome (AIDS) and AIDS related complex", Clin. Exp. Immunol., 62:296, 1985. Briefly, blood was diluted 1:1 with Hanks balanced salt solution (HBSS). Peripheral blood mononuclear cells were separated on a Ficoll-Hypaque gradient. The peripheral blood mononuclear cells recovered from the interface were washed three times with HBSS and resuspended in RPMI-1640 containing 100 U/ml penicillin, 100 μg/ml streptomycin 2mM L-glutamine (GIBCO, Grand Island, N.Y.), and 10% heat-inactivated pooled A serum (Irvine Scientific, Irvine, Calif.), hereafter referred as complete medium (CM). […] T. Terasaki, "Effect of water soluble adjuvants on in vitro lymphocyte immunization", Cancer Res. 35:666, 1975. […] The culture were set up in quadruplicate and pulsed with [^3 H]-thymidine for 16 hr and the [^3 H] thymidine incorporation was determined.

[3] = Revankar et al. 1984; cited from earlier work; remark: listed apart in the source
[4] = test system: human lymphocytes (peripheral blood mononuclear cells); assay: Concanavalin A (Con A) induced lymphocyte proliferation; format: cell-based; set-up: 3H-thymidine incorporation in Con A-stimulated cultures: unit not given here
Description: Peripheral blood mononuclear cells were isolated from heparinized peripheral blood of normal healthy donors as described in Sharma, B. and S. Gupta, "Antigen-specific primary cytotoxic T lymphocyte response in acquired immune deficiency syndrome (AIDS) and AIDS related complex", Clin. Exp. Immunol., 62:296, 1985. Briefly, blood was diluted 1:1 with Hanks balanced salt solution (HBSS). Peripheral blood mononuclear cells were separated on a Ficoll-Hypaque gradient. The peripheral blood mononuclear cells recovered from the interface were washed three times with HBSS and resuspended in RPMI-1640 containing 100 U/ml penicillin, 100 μg/ml streptomycin 2mM L-glutamine (GIBCO, Grand Island, N.Y.), and 10% heat-inactivated pooled A serum (Irvine Scientific, Irvine, Calif.), hereafter referred as complete medium (CM).
The ability of the compound 6-amino-(2-deoxy-α-D-erythropentofuranosyl)-imidazo[4,5,-C]pyridin-4-one to modulate lymphocyte response to plant mitogens was determined by the modified procedure of Sharma, B., O. Kohashi, M. R. Mickey, and P. T. Terasaki, "Effect of water soluble adjuvants on in vitro lymphocyte immunization", Cancer Res. 35:666, 1975. Peripheral blood mononuclear cells were cultured for 72-96 hr with phytohemagglutinin (Difco, Detroit, Mich.), Concanavalin A (Calbiochem, Calif.) or Pokeweed mitogen (GIBCO, Grand Island, N.Y.) in the presence and absence of 6-amino-(2-deoxy-α-D-erythro-pentofuranosyl)-imidazo[4,5,-C]pyridin- 4-one. The culture were set up in quadruplicate and pulsed with [^3 H]-thymidine for 16 hr and the [^3 H] thymidine incorporation was determined.
Peripheral blood mononuclear cells were cultured with different concentrations of Concanavalin A in the presence and absence of 6-amino-(2-deoxy-α-D-erythro-pentofuranosyl)-imidazo[4,5,-C]pyridin- 4-one. Lymphocyte proliferation was determined by ^3 H-thymidine incorporation.

[5] = test system: T lymphocytes (peripheral blood mononuclear cells); assay: Cyclosporin A induced suppression of lymphocyte response to Concanavalin A, and its restoration; format: cell-based, human; conditions: FIG. 4; Con A
Description: Briefly, blood was diluted 1:1 with Hanks balanced salt solution (HBSS). Peripheral blood mononuclear cells were separated on a Ficoll-Hypaque gradient.
Cultures were pulsed for 16 hr and [^3 H]-thymidine incorporation was measured.
Peripheral blood mononuclear cells from normal donors were incubated with T cell mitogens in the presence and absence of this compound and then [^3 H-thymidine incorporation was measured.
Lymphocytes proliferation was determined by ^3 H-thymidine incorporation.

[6] = donor 1, Con A 0.25 mg/0.2 ml, compound (0.05)
[7] = donor 1, Con A 1.0 mg/0.2 ml, compound (0.006)
[8] = donor 1, Con A 4.0 mg/0.2 ml, compound (0.038)
[9] = donor 2, Con A 0.13 mg/0.2 ml, compound (0.2)
[10] = donor 2, Con A 0.13 mg/0.2 ml, compound (0.4)
[11] = donor 2, Con A 0.25 mg/0.2 ml, compound (0.2)
[12] = donor 2, Con A 0.25 mg/0.2 ml, compound (0.4)
[13] = donor 2, Con A 2.0 mg/0.2 ml, compound (0.025)
[14] = donor 3, Con A 0.13 mg/0.2 ml, compound (0.0125)
[15] = donor 3, Con A 0.13 mg/0.2 ml, compound (0.4)
[16] = donor 3, Con A 0.25 mg/0.2 ml, compound (0.05)
[17] = donor 3, Con A 0.25 mg/0.2 ml, compound (0.4)
[18] = donor 3, Con A 2.0 mg/0.2 ml, compound (0.05)
[19] = donor 3, Con A 2.0 mg/0.2 ml, compound (O.4)
[20] = donor 4, Con A 0.05 mg/0.2 ml, compound (0.025)
[21] = donor 4, Con A 0.13 mg/0.2 ml, compound (0.05)
[22] = donor 4, Con A 0.25 mg/0.2 ml, compound (0.05)
[23] = donor 5, Con A 0.5 mg/0.2 ml, compound (0.05)
[24] = donor 5, Con A 2.0 mg/0.2 ml, compound (0.025)

Nc1cc2c(ncn2[C@@H]2C[C@H](O)[C@@H](CO)O2)c(O)n1 [Test Compound, 6-amino-1-(2-deoxy-α-D-erythro-pentofuranosyl)imidazo[4,5-C]-pyridin-4-one]
in vitro antiviral activity [1]: limited in vitro antiviral activity | maximum increase of Pokeweed mitogen induced proliferation [2]: 18% | activation at 6 µM ([2]; Homo sapiens, Lymphocyte, donor 1, control 53384, 0.006 mM, read-out: % Increase (+)): 18% | activation at 25 µM ([2]; Homo sapiens, Lymphocyte, donor 1, control 53384, 0.025 mM, read-out: % Increase (+)): 8% | activation at 6 µM ([2]; Homo sapiens, Lymphocyte, donor 1, second control 58731, 0.006 mM, read-out: % Increase (+)): 4% | activation at 6 µM ([2]; Homo sapiens, Lymphocyte, donor 4, 0.006 mM, read-out: % Increase (+)): 4% | inhibition at 50 µM ([2]; Homo sapiens, PBMC, donor 1, control 53384, 0.05 mM, read-out: % Decrease (-)): 14% | inhibition at 25 µM ([2]; Homo sapiens, PBMC, donor 1, second control 58731, 0.025 mM, read-out: % Decrease (-)): 1% | inhibition at 50 µM ([2]; Homo sapiens, PBMC, donor 1, second control 58731, 0.05 mM, read-out: % Decrease (-)): 7% | inhibition at 25 µM ([2]; Homo sapiens, PBMC, donor 2, 0.025 mM, read-out: % Decrease (-)): 19% | inhibition at 50 µM ([2]; Homo sapiens, PBMC, donor 2, 0.05 mM, read-out: % Decrease (-)): 19% | inhibition at 125 µM ([2]; Homo sapiens, PBMC, donor 2, 0.125 mM, read-out: % Decrease (-)): 16% | inhibition at 6 µM ([2]; Homo sapiens, PBMC, donor 3, 0.006 mM, read-out: % Decrease (-)): 4% | inhibition at 25 µM ([2]; Homo sapiens, PBMC, donor 3, 0.025 mM, read-out: % Decrease (-)): 22% | inhibition at 200 µM ([2]; Homo sapiens, PBMC, donor 3, 0.2 mM, read-out: % Decrease (-)): 27% | inhibition at 25 µM ([2]; Homo sapiens, PBMC, donor 4, 0.025 mM, read-out: % Decrease (-)): 11% | inhibition at 50 µM ([2]; Homo sapiens, PBMC, donor 4, 0.05 mM, read-out: % Decrease (-)): 18% | 3H-thymidine incorporation ([2]; donor 1, control 53384, 0.006 mM): 62772 ± 2781 | 3H-thymidine incorporation ([2]; donor 1, control 53384, 0.025 mM): 56449 ± 2090 | 3H-thymidine incorporation ([2]; donor 1, control 53384, 0.05 mM): 45844 ± 1152 | 3H-thymidine incorporation ([2]; donor 1, second control 58731, 0.006 mM): 61100 ± 4701 | 3H-thymidine incorporation ([2]; donor 1, second control 58731, 0.025 mM): 57852 ± 3166 | 3H-thymidine incorporation ([2]; donor 1, second control 58731, 0.05 mM): 54840 ± 942 | 3H-thymidine incorporation ([2]; donor 2, 0.025 mM): 67565 ± 5857 | 3H-thymidine incorporation ([2]; donor 2, 0.05 mM): 67429 ± 3657 | 3H-thymidine incorporation ([2]; donor 2, 0.125 mM): 70197 ± 5940 | 3H-thymidine incorporation ([2]; donor 3, 0.006 mM): 40425 ± 1158 | 3H-thymidine incorporation ([2]; donor 3, 0.025 mM): 32818 ± 4806 | 3H-thymidine incorporation ([2]; donor 3, 0.2 mM): 30453 ± 2974 | 3H-thymidine incorporation ([2]; donor 4, 0.006 mM): 39090 ± 4853 | 3H-thymidine incorporation ([2]; donor 4, 0.025 mM): 33122 ± 4539 | 3H-thymidine incorporation ([2]; donor 4, 0.05 mM): 30500 ± 2132 | suppressive effect on Pokeweed mitogen induced proliferation ([2]; especially at relatively higher concentrations): generally a suppressive effect | immunopotentiating effect on Pokeweed mitogen induced proliferation ([2]; listed as 6-Amino-(2-deoxy-α-D-erythro-pentofuranosyl)-imidazo[4,5,-C]pyridin-4-one): did not have any significant immunopotentiating effect | antitumor activity [3]: devoid of any useful antitumor activity | increase in lymphocyte response to Concanavalin A [4]: marked increase | mean increase of Con A response ([4]; Table IV): 109% | suppressive effect on Con A response ([4]; Table IV): slight suppressive effect in only one case | 3H-thymidine incorporation in Con A-stimulated cultures [4, 6]: 49279 ± 2732 | % Potentiation [4, 6]: 32% | 3H-thymidine incorporation in Con A-stimulated cultures [4, 7]: 71105 ± 4015 | % Potentiation [4, 7]: 34% | 3H-thymidine incorporation in Con A-stimulated cultures [4, 8]: 99322 ± 8655 | % Potentiation [4, 8]: 43% | 3H-thymidine incorporation in Con A-stimulated cultures [4, 9]: 18607 ± 2157 | % Potentiation [4, 9]: 318% | 3H-thymidine incorporation in Con A-stimulated cultures [4, 10]: 31068 ± 2678 | % Potentiation [4, 10]: 599% | 3H-thymidine incorporation in Con A-stimulated cultures [4, 11]: 44958 ± 2248 | % Potentiation [4, 11]: 203% | 3H-thymidine incorporation in Con A-stimulated cultures [4, 12]: 48354 ± 3336 | % Potentiation [4, 12]: 226% | 3H-thymidine incorporation in Con A-stimulated cultures [4, 13]: 162317 ± 10872 | % Potentiation [4, 13]: 29% | 3H-thymidine incorporation in Con A-stimulated cultures [4, 14]: 29693 ± 4998 | % Potentiation [4, 14]: 50% | 3H-thymidine incorporation in Con A-stimulated cultures [4, 15]: 39902 ± 2918 | % Potentiation [4, 15]: 102% | 3H-thymidine incorporation in Con A-stimulated cultures [4, 16]: 57780 ± 9762 | % Potentiation [4, 16]: 36% | 3H-thymidine incorporation in Con A-stimulated cultures [4, 17]: 51010 ± 3861 | % Potentiation [4, 17]: 20% | 3H-thymidine incorporation in Con A-stimulated cultures [4, 18]: 122692 ± 3643 | % Potentiation [4, 18]: 12% | 3H-thymidine incorporation in Con A-stimulated cultures [4, 19]: 98613 ± 4737 | % Potentiation [4, 19]: -11% | 3H-thymidine incorporation in Con A-stimulated cultures [4, 20]: 43957 ± 6053 | % Potentiation [4, 20]: 54% | 3H-thymidine incorporation in Con A-stimulated cultures [4, 21]: 44234 ± 5027 | % Potentiation [4, 21]: 110% | 3H-thymidine incorporation in Con A-stimulated cultures [4, 22]: 39059 ± 5098 | % Potentiation [4, 22]: 49% | 3H-thymidine incorporation in Con A-stimulated cultures [4, 23]: 71303 ± 3633 | % Potentiation [4, 23]: 33% | 3H-thymidine incorporation in Con A-stimulated cultures [4, 24]: 75046 ± 1495 | % Potentiation [4, 24]: 16% | reversal of Cyclosporin A mediated suppression [5]: completely reversed
